According to US20250195521A1 (Revolution Medicines, Inc., priority 2020, published 2025):
pIC50: −log10 of the molar value.

Legend:
NCI-H358 (K-Ras G12C) = assay: CellTiter-Glo cell viability assay, NCI-H358; assay type: cell-based, human; conditions: Homo sapiens, NCI-H358, 120 h, 5-day treatment; read-out: H358 Cell Viability assay data (K-Ras G12C, IC50)
In short: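 Viability is measured as ATP-dependent luminescence (CellTiter-Glo) five days into compound treatment. Responses are normalized to vehicle (DMSO) wells and fitted by four-parameter logistic regression.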

KRAS WT = KRAS WT (Homo sapiens (Human), UniProt P01116+P62937); assay: Ras-Raf disruption/FRET/MOA assay (BRAF RBD, Cyclophilin A); assay type: biochemical; conditions: read-out: KRAS WT FRET data IC50
Sequence of KRAS WT (P01116 other isoform, or with tags, fused parts or gaps): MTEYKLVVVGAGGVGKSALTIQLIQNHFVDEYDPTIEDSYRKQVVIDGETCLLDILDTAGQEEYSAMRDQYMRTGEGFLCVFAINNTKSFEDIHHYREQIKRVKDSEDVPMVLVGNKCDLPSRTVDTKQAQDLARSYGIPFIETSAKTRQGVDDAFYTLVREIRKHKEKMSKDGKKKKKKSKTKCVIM
Sequence of KRAS WT (P62937 whole entry): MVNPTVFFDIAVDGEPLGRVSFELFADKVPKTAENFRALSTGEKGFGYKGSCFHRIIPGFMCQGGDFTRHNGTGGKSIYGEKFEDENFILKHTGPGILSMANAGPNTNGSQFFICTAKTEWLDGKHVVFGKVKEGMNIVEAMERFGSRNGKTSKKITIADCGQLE
In short: (§1)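 His6-K-Ras-GMPPNP (12.5 nM), GST-BRAF RBD (50 nM) and tagless Cyclophilin A (25 μM) were combined in 25 mM HEPES pH 7.3 with 100 mM NaCl, 5 mM MgCl2, 0.1% BSA and 0.002% Tween20, with compound as a 10-point 3-fold series from 30 μM final, then incubated 3 h at 25° C.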

NRAS G12C = NRAS G12C (Homo sapiens (Human), UniProt P01111+P62937, G12C); assay: as above; assay type: biochemical; conditions: read-out: NRAS G12C FRET data IC50
Sequence of NRAS G12C (P01111 whole entry G12C): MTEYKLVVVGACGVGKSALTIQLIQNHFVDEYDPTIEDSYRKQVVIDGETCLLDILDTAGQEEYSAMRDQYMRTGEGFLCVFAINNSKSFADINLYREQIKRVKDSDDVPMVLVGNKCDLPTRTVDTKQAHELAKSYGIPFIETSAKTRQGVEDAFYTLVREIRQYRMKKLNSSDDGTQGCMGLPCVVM
Sequence of NRAS G12C (P62937 whole entry): as the sequence (P62937 whole entry) above
In short: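 Ras-GMPPNP (12.5 nM), BRAF RBD (50 nM) and 25 μM Cyclophilin A were incubated with compound for 3 h at 25° C, then detected 1.5 h with anti-His Eu and anti-GST APC; IC50 values follow from the reduced TR-FRET ratio.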

KRAS G13D = KRAS G13D (Homo sapiens (Human), UniProt P01116+P62937, G13D); assay: as above; assay type: biochemical; conditions: read-out: KRAS G13D FRET data IC50
Sequence of KRAS G13D (P01116 other isoform, or with tags, fused parts or gaps G13D): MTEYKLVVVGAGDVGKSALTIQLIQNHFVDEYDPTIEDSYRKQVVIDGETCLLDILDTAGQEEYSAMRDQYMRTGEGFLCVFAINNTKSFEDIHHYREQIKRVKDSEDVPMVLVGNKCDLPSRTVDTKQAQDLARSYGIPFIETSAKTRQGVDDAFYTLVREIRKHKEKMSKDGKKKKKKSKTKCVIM
Sequence of KRAS G13D (P62937 whole entry): as the sequence (P62937 whole entry) above
In short: as §1

KRAS G13C = KRAS G13C (Homo sapiens (Human), UniProt P01116+P62937, G13C); assay: as above; assay type: biochemical; conditions: read-out: KRAS G13C FRET IC50
Sequence of KRAS G13C (P01116 other isoform, or with tags, fused parts or gaps G13C): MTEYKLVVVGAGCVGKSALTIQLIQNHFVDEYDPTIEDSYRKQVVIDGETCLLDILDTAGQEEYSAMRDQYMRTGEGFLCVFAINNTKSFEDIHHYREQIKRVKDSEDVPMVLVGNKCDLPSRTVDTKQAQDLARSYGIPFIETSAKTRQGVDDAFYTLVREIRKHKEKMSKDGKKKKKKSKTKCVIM
Sequence of KRAS G13C (P62937 whole entry): as the sequence (P62937 whole entry) above
In short: as §1

KRAS G12D = KRAS G12D (Homo sapiens (Human), UniProt P01116+P62937, G12D); assay: as above; assay type: biochemical; conditions: read-out: KRAS G12D FRET IC50
Sequence of KRAS G12D (P01116 other isoform, or with tags, fused parts or gaps G12D): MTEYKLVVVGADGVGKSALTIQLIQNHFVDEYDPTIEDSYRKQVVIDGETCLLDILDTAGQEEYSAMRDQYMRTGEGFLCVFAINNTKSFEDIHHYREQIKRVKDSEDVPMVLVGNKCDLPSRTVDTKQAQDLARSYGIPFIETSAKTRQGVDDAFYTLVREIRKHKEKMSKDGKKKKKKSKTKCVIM
Sequence of KRAS G12D (P62937 whole entry): as the sequence (P62937 whole entry) above
In short: as §1

KRAS G12S = KRAS G12S (Homo sapiens (Human), UniProt P01116+P62937, G12S); assay: as above; assay type: biochemical; conditions: read-out: KRAS G12S FRET IC50
Sequence of KRAS G12S (P01116 other isoform, or with tags, fused parts or gaps G12S): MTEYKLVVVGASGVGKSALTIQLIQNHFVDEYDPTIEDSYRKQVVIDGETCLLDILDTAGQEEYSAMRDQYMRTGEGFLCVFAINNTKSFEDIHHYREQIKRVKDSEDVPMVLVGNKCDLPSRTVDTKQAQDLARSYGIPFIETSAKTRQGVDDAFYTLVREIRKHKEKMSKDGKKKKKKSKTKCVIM
Sequence of KRAS G12S (P62937 whole entry): as the sequence (P62937 whole entry) above
In short: as §1

KRAS G12C = KRAS G12C (Homo sapiens (Human), UniProt P01116+P62937, G12C); assay: as above; assay type: biochemical; conditions: read-out: KRAS G12C FRET IC50
Sequence of KRAS G12C (P01116-2 other isoform, or with tags, fused parts or gaps G12C): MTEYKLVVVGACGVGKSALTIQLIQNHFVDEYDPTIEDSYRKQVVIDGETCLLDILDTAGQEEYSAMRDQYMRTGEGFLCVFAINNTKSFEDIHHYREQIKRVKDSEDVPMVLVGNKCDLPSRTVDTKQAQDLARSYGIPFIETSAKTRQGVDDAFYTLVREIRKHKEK
Sequence of KRAS G12C (P62937 whole entry): as the sequence (P62937 whole entry) above
In short: as §1

KRAS G12V = KRAS G12V (Homo sapiens (Human), UniProt P01116+P62937, G12V); assay: as above; assay type: biochemical; conditions: read-out: KRAS G12V FRET IC50
Sequence of KRAS G12V (P01116 other isoform, or with tags, fused parts or gaps G12V): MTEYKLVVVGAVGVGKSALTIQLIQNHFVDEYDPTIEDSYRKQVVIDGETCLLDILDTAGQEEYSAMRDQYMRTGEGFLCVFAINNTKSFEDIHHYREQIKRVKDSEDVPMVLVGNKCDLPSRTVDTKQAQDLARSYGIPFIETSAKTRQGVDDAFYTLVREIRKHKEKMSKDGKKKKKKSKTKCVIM
Sequence of KRAS G12V (P62937 whole entry): as the sequence (P62937 whole entry) above
In short: as §1

SMILES	pIC50 (NCI-H358 (K-Ras G12C))	pIC50 (KRAS WT)	pIC50 (NRAS G12C)	pIC50 (KRAS G13D)	pIC50 (KRAS G13C)	pIC50 (KRAS G12D)	pIC50 (KRAS G12S)	pIC50 (KRAS G12C)	pIC50 (KRAS G12V)
CCn1c(-c2cccnc2[C@H](C)OC)c2c3cc(ccc31)-c1csc(n1)C[C@H](NC(=O)[C@H](C(C)C)N(C)C(=O)N1CCOC[C@@H]1C)C(=O)N1CCC[C@H](N1)C(=O)OCC(C)(C)C2 [Compound A403]	> 8.00	6.00 to 7.00	6.00 to 7.00	6.00 to 7.00	6.00 to 7.00	5.00 to 6.00	6.00 to 7.00	6.00 to 7.00	6.00 to 7.00
CCn1c(-c2cccnc2[C@H](C)OC)c2c3cc(ccc31)-c1cc(O)cc(c1)C[C@H](NC(=O)[C@H](C(C)C)N(C)C(=O)C1CN3CCCN1CC3)C(=O)N1CCC[C@H](N1)C(=O)OCC(C)(C)C2 (stereo partly drawn) [Compound A404]	7.00 to 8.00	6.00 to 7.00	6.00 to 7.00	6.00 to 7.00	6.00 to 7.00	6.00 to 7.00	6.00 to 7.00	6.00 to 7.00	5.00 to 6.00
CCn1c(-c2cccnc2[C@H](C)OC)c2c3cc(ccc31)-c1cc(O)cc(c1)C[C@H](NC(=O)[C@H](C(C)C)N(C)C(=O)C13CC(CO1)C3)C(=O)N1CCC[C@H](N1)C(=O)OCC(C)(C)C2 [Compound A406]	7.00 to 8.00	7.00 to 8.00	7.00 to 8.00	6.00 to 7.00	7.00 to 8.00	6.00 to 7.00	7.00 to 8.00	7.00 to 8.00	6.00 to 7.00
CCn1c(-c2cccnc2[C@H](C)OC)c2c3cc(ccc31)-c1cc(O)cc(c1)C[C@H](NC(=O)[C@H](C(C)C)N(C)C(=O)C1CCC3(CCOC3)O1)C(=O)N1CCC[C@H](N1)C(=O)OCC(C)(C)C2 (stereo partly drawn) [Compound A409]	7.00 to 8.00	7.00 to 8.00	7.00 to 8.00	7.00 to 8.00	7.00 to 8.00	6.00 to 7.00	7.00 to 8.00	7.00 to 8.00	6.00 to 7.00
CCn1c(-c2cccnc2[C@H](C)OC)c2c3cc(ccc31)-c1cc(O)cc(c1)C[C@H](NC(=O)[C@H](C(C)C)N(C)C(=O)[C@@H]1[C@H]3CC[C@H](C3)[C@@H]1N)C(=O)N1CCC[C@H](N1)C(=O)OCC(C)(C)C2 [Compound A417]	7.00 to 8.00	6.00 to 7.00	6.00 to 7.00	6.00 to 7.00	6.00 to 7.00	6.00 to 7.00	6.00 to 7.00	6.00 to 7.00	5.00 to 6.00
CCn1c(-c2cccnc2[C@H](C)OC)c2c3cc(ccc31)-c1cc(O)cc(c1)C[C@H](NC(=O)[C@H](C(C)C)N(C)C(=O)[C@H]1OCC[C@H]1c1ccccc1)C(=O)N1CCC[C@H](N1)C(=O)OCC(C)(C)C2 [Compound A425]	> 8.00	5.00 to 6.00	5.00 to 6.00	5.00 to 6.00	6.00 to 7.00	5.00 to 6.00	5.00 to 6.00	6.00 to 7.00	6.00 to 7.00
CCn1c(-c2cccnc2[C@H](C)OC)c2c3cc(ccc31)-c1cc(O)cc(c1)C[C@H](NC(=O)[C@H](C(C)C)N(C)C(=O)C1CNCCNC1)C(=O)N1CCC[C@H](N1)C(=O)OCC(C)(C)C2 [Compound A432]	7.00 to 8.00	6.00 to 7.00	7.00 to 8.00	7.00 to 8.00	7.00 to 8.00	6.00 to 7.00	6.00 to 7.00	7.00 to 8.00	5.00 to 6.00
CCn1c(-c2cccnc2[C@H](C)OC)c2c3cc(ccc31)-c1csc(n1)C[C@H](NC(=O)[C@H](C(C)C)N(C)C(=O)N1CCO[C@@]3(CCN(C)C3)C1)C(=O)N1CCC[C@H](N1)C(=O)OCC(C)(C)C2 [Compound A436]	7.00 to 8.00	6.00 to 7.00	7.00 to 8.00	6.00 to 7.00	6.00 to 7.00	6.00 to 7.00	6.00 to 7.00	6.00 to 7.00	6.00 to 7.00
CCn1c(-c2cc(N3CCN(C)CC3)cnc2[C@H](C)OC)c2c3cc(ccc31)-c1csc(n1)C[C@H](NC(=O)[C@H](C(C)C)N(C)C(=O)[C@@H]1CCCS1(=O)=O)C(=O)N1CCC[C@H](N1)C(=O)OCC(C)(C)C2 [Compound A440]	> 8.00	6.00 to 7.00	6.00 to 7.00	5.00 to 6.00	5.00 to 6.00	5.00 to 6.00	5.00 to 6.00	6.00 to 7.00	5.00 to 6.00
